{"source": "paper PMC9085648", "about": "“Synthesis of novel genistein amino acid derivatives and investigation on their interactions with bovine serum albumin by spectroscopy and molecular docking” (RSC Advances, 2018)", "key": {"BSA [1]": {"molecular_target": "T1, BSA (Bos taurus, UniProt P02769)", "T1 construct": "purchased Aladdin's Reagent Co., Ltd. (Shanghai, China)", "T1 sequence (P02769 25-607)": "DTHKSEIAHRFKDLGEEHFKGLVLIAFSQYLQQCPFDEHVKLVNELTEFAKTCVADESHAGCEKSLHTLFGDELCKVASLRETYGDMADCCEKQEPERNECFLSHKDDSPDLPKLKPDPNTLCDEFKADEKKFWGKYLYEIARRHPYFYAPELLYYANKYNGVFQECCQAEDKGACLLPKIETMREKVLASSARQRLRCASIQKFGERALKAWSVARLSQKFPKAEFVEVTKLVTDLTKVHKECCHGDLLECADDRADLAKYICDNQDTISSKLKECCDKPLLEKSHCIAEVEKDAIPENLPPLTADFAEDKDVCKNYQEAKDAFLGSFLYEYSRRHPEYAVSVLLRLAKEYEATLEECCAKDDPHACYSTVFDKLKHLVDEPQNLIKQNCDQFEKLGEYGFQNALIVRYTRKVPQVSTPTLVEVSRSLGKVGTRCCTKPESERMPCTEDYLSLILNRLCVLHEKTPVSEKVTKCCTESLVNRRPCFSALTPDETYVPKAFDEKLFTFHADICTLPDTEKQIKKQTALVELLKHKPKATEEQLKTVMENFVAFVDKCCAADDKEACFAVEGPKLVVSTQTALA", "experiment": "Fluorescence quenching of BSA (Stern-Volmer, double-log, van't Hoff)", "type": "binding, bovine", "details": "for K SV (quenching constant): BSA 1 μM, pH 7.4; for ΔGexp: ΔGexp = ΔH − TΔS; for K q (quenching rate constant): τ0 = 10^−8 s; for Kd: read-out: K b (binding constant) (converted)", "description": "Fluorescence spectra were carried on a F-7000 fluorescence spectrophotometer (Japan) fitted out with a 1.0 cm quartz dish. The excitation wavelength was set at 280 nm with 5/5 nm slit widths, while the emission wavelength ranged from 290 nm to 500 nm at different temperatures. The BSA solution (1 μM) was titrated with genistein and its amino acid derivatives 4a–4d for three times. The final concentrations of genistein and 4a–4d were (0.0, 6.4, 12.8, 19.2, 25.6, 32, 38.4, 44.8, and 51.2) μM.\nThe Stern–Volmer equation is often applied to reveal the fluorescence quenching mechanism:[19]1 [drawing 1] where F0 and F are the fluorescence intensities of complex […], respectively.[18] [Q] denotes the concentration of quencher. Ksv and Kq are quenching constant and quenching rate constant of BSA, respectively.[20]τ0 is the lifetime of fluorophore in the absence of genistein, 4a–4d and equals to 10^−8 s.[21] […] It can be observed that the Ksv values decreased gradually with rise in temperature in Table 2. Furthermore, Kq values were in the order of 10^12, which were larger than the maximum diffusion collisional rate constant (2.0 × 10^10 M^−1 s^−1).[22]\nDouble-logarithmic eqn (2) is often used to explore the binding parameters of static quenching, such as binding constant (Kb) and binding sites (n):[23]2 [drawing 2]\nTo clarify the binding forces between genistein, 4a–4d and BSA, the thermodynamic parameters were studied via the van't Hoff equations:[25]3 [drawing 3] 4 ΔG = −RT ln K = ΔH − TΔSwhere T denotes the experimental temperature, K denotes the binding constant at the corresponding temperature, R is the gas constant.[26] According to Ross and Subramanian's previous research,[27] the characteristic for van der Waals interactions or/and hydrogen bonding is ΔH < 0 and ΔS < 0, for hydrophobic interaction is ΔH > 0 and ΔS > 0, and for electrostatic interactions is ΔH ≈ 0 and ΔS > 0.[28] The calculation results of the thermodynamic parameters were recorded in Table 3."}, "MGC-803": {"test_system": "MGC-803", "experiment": "MTT cytotoxicity assay, MGC-803", "type": "cell-based", "details": "Homo sapiens, 48 h, mean ± SD of three experiments, read-out: Cancer cell lines IC50, MGC-803", "description": "(§1) All cell lines were purchased from the Cell Bank of Type Culture Collection of Chinese Academy of Sciences (Shanghai, China). MGC-803 was routinely cultured in RPMI-1640 medium containing 10% FBS and 1% penicillin/streptomycin. MCF-7, HCT-116 and Hela were routinely cultured in medium DMEM/high glucose containing 10% FBS and 1% penicillin/streptomycin. All cell lines were incubated in culture at 37 °C in air with 5% CO2 for 24 h.\n(§2) All cell lines were plated in 96-well plates, and each well contains 4000 cells in 100 μL culture medium. Then the cells were treated with genistein or its amino acid derivatives dissolved in DMSO at different doses in a CO2 incubator at 37 °C for 48 h, and DMSO was used as vehicle control. After removing the culture medium, 10 μL MTT and 90 μL blank culture medium were added to each well and incubated for additional 4 h at 37 °C. The absorbance was determined by a microplate-reader at 490 nm."}, "BSA [2]": {"molecular_target": "T1, BSA", "experiment": "Three-dimensional fluorescence spectroscopy of BSA", "type": "binding, bovine", "description": "The 3D fluorescence spectra of genistein and compounds 4a–4d were recorded with scanning excitation wavelength ranged from 200 nm to 300 nm with 10 nm interval, and emission wavelength ranged from 290 nm to 470 nm with 5 nm interval for three times. Other parameters were the same as Section 2.4.1."}, "Hela": {"test_system": "Hela", "experiment": "MTT cytotoxicity assay, Hela", "type": "cell-based", "details": "Homo sapiens, 48 h, mean ± SD of three experiments, read-out: Cancer cell lines IC50, Hela", "description": "as §1, §2"}, "HCT-116": {"test_system": "HCT-116", "experiment": "MTT cytotoxicity assay, HCT-116", "type": "cell-based", "details": "Homo sapiens, 48 h, mean ± SD of three experiments, read-out: Cancer cell lines IC50, HCT-116", "description": "as §1, §2"}, "MCF-7": {"test_system": "MCF-7", "experiment": "MTT cytotoxicity assay, MCF-7", "type": "cell-based", "details": "Homo sapiens, MCF7, 48 h, mean ± SD of three experiments, read-out: Cancer cell lines IC50, MCF-7", "description": "as §1, §2"}, "[3]": {"details": "Peak 1, [BSA]:[compound] = 1:3, 298 K"}, "[4]": {"details": "Peak 2, [BSA]:[compound] = 1:3, 298 K"}, "[5]": {"details": "Peak a (Rayleigh scattering), [BSA]:[compound] = 1:3, 298 K"}}, "note": "Like-named read-outs stand apart in the source and are kept apart here.", "data": [{"molecule": "O=c1c(-c2ccc(O)cc2)coc2cc(O)cc(O)c12", "note": "[Genistein]", "values": [{"measurement": "n (binding sites)", "setting": "BSA [1]; T 298 K", "result": 1.42}, {"measurement": "K SV (quenching constant)", "setting": "BSA [1]; T 298 K", "result": "6.2416 ± 0.0984 10^4 M^−1"}, {"measurement": "ΔGexp", "setting": "BSA [1]; T 298 K", "result": -37.69, "unit": "kJ/M"}, {"measurement": "K q (quenching rate constant)", "setting": "BSA [1]; T 298 K", "result": "6.2416 10^12 M^−1 s^−1"}, {"measurement": "Kd", "setting": "BSA [1]; T 298 K", "result": 256, "unit": "nM"}, {"measurement": "n (binding sites)", "setting": "BSA [1]; T 306 K", "result": 1.39}, {"measurement": "K SV (quenching constant)", "setting": "BSA [1]; T 306 K", "result": "5.3472 ± 0.1242 10^4 M^−1"}, {"measurement": "ΔGexp", "setting": "BSA [1]; T 306 K", "result": -37.11, "unit": "kJ/M"}, {"measurement": "K q (quenching rate constant)", "setting": "BSA [1]; T 306 K", "result": "5.3472 10^12 M^−1 s^−1"}, {"measurement": "Kd", "setting": "BSA [1]; T 306 K", "result": 415, "unit": "nM"}, {"measurement": "n (binding sites)", "setting": "BSA [1]; T 310 K", "result": 1.37}, {"measurement": "K SV (quenching constant)", "setting": "BSA [1]; T 310 K", "result": "4.3285 ± 0.1005 10^4 M^−1"}, {"measurement": "ΔGexp", "setting": "BSA [1]; T 310 K", "result": -36.83, "unit": "kJ/M"}, {"measurement": "K q (quenching rate constant)", "setting": "BSA [1]; T 310 K", "result": "4.3285 10^12 M^−1 s^−1"}, {"measurement": "Kd", "setting": "BSA [1]; T 310 K", "result": 671, "unit": "nM"}, {"measurement": "ΔH", "setting": "BSA [1]; van't Hoff, 298-310 K", "result": -59.09, "unit": "kJ/M"}, {"measurement": "ΔS", "setting": "BSA [1]; van't Hoff, 298-310 K", "result": "−71.83", "unit": "J K^−1 M^−1"}, {"measurement": "IC50", "setting": "MGC-803", "result": "> 100000", "unit": "nM"}, {"measurement": "3D fluorescence intensity", "setting": "BSA [2]; [3]", "result": 259.2, "unit": "a.u"}, {"measurement": "3D fluorescence peak position λex/λem", "setting": "BSA [2]; [3]", "result": "230/355"}, {"measurement": "3D fluorescence intensity", "setting": "BSA [2]; [4]", "result": 333.2, "unit": "a.u"}, {"measurement": "3D fluorescence peak position λex/λem", "setting": "BSA [2]; [4]", "result": "280/355"}, {"measurement": "3D fluorescence intensity", "setting": "BSA [2]; [5]", "result": 159.6, "unit": "a.u"}, {"measurement": "3D fluorescence peak position λex/λem", "setting": "BSA [2]; [5]", "result": "290/295"}, {"measurement": "IC50", "setting": "Hela", "result": "> 100000", "unit": "nM"}, {"measurement": "IC50", "setting": "HCT-116", "result": "> 100000", "unit": "nM"}, {"measurement": "IC50", "setting": "MCF-7", "result": "> 100000", "unit": "nM"}]}]}
